Structures can show the parent of a compound that is named as a salt. Where two headings read alike, the source gives them in different places.
How the values were obtained:
Recombinant human PARP = Recombinant human PARP (Homo sapiens, UniProt P09874); experiment: PARP enzyme activity inhibitory action; conditions: for IC50: 3H-NAD, activated DNA, 25° C. 15 min
Experimental: After incubation at 25° C. for 15 min., the reaction was quenched with 20% trichloroacetic acid, and the resulting acid insoluble fraction was adsorbed on a GF/B filter. The filter was washed several times with 5% trichloroacetic acid, and the radiation dose on the filter was measured by liquid scintillation counter.

P388D1 cells = experiment: Hydrogen peroxide (H2O2) induced cytotoxicity suppressive action; format: cell-based; conditions: H2O2 (2 mM), 4 hr, LDH activity, read-out: Cell death suppressive action IC50
Experimental: P388D1 cells cultured to confluence in a 25 cm^2 flask were sown in 96-well plate at a density of […]. The test compound was added, and the cells were incubated for 15 min (37° C.), after which H2O2 (2 mM) was added, and the cells were incubated for 4 hr. After the completion of the incubation, the culture supernatant was recovered, and the LDH activity, which is an index of cytotoxicity, was measured using an LDH-cytotoxicity test kit (Wako Pure Chemical Industries, Ltd.).

[1] = Stability test in 0.1 mol/L aqueous citric acid solution (HPLC residual ratio); format: physicochemical; conditions: 5 mg in 1 ml 0.1 mol/L aqueous citric acid, room temperature
Experimental: Each test compound (5 mg) was dissolved in 0.1 mol/L aqueous citric acid solution (1 ml), and the residual ratio of each compound was measured by HPLC under shading or no shading at room temperature one day and 8 days later. The residual ratio was calculated by comparing the area of HPLC immediately after dissolution of each compound with the area of HPLC one day or 8 days later.
column CAPCELPAK UG120 (C18)(Shiseido Co., Ltd.)
mobile phase 50 mmol/L aqueous sodium perchlorate solution (pH
detection wavelength 254 nm

adrenalin α1 receptor = experiment: Affinity for adrenalin α1 receptor; 3H-prazosin binding; conditions: rat brain crude synapse membrane, 25° C. 30 min
Experimental: Preparation of crude synapse membrane and binding experiment were performed according to European Journal of Pharmacology, vol. 55, page 323 (1979). Crude synapse membranes were prepared from cryopreserved rat brain tissues, and a membrane sample and 3H-prazosin were incubated in the presence of a test compound at 25° C. for 30 min. […] The amount of non-specific binding was determined in the presence of 1 μM prazosin. The 50% suppression concentration (IC50) of the test compound was calculated from nonlinear regression, and the inhibition constant (Ki value) was determined.

[2] = PARP inhibitory activity IC50 (nM), average of 2 measurements
[3] = PARP inhibitory activity IC50 (nM), average of 3 measurements

Chain of Recombinant human PARP (P09874 whole entry): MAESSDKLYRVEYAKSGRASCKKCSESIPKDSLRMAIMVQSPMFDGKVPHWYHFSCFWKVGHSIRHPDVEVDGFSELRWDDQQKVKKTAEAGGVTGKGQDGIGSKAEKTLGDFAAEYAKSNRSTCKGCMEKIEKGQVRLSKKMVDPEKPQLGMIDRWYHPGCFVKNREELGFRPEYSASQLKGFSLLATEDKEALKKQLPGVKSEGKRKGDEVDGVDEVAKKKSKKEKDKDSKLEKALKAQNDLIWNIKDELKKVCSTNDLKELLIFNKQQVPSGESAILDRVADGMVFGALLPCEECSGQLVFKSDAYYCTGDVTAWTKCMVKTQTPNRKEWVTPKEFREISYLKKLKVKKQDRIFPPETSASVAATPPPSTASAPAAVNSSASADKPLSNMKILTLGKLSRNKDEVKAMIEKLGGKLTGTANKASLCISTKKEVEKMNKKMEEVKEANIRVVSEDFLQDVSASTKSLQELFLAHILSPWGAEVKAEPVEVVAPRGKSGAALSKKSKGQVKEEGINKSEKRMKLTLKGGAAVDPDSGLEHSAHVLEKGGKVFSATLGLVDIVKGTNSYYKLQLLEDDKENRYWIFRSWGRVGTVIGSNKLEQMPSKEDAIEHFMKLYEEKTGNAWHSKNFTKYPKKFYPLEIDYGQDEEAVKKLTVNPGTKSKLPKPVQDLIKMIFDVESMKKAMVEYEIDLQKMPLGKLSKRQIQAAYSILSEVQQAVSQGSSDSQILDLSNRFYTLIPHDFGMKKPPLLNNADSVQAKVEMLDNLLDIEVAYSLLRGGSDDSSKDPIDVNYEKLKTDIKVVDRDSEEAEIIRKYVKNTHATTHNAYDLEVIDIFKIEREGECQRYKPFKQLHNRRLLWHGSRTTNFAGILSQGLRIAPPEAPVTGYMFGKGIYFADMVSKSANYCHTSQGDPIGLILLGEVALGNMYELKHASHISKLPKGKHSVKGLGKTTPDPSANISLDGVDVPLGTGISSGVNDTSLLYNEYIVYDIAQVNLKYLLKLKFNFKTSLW

Row | SMILES | IC50 (Recombinant human PARP; [3]) | IC50 (P388D1 cells; Mus musculus) | other results
1 | O=C1NCCc2c(OCCCCN3CCCCC3)cccc21 [DPQ, 3,4-dihydro-5-[4-(1-piperidinyl)-butoxy]-1(2H)-isoquinoline, reference compound] | – | – | IC50 (Recombinant human PARP; read-out: PARP inhibitory activity IC50, average of 3 measurements): 1000 nM; IC50 (P388D1 cells): 3300 nM
2 | Cc1cccc2c(=O)[nH]c(N3CCN(C)CC3)cc12 [Example 1, 5-methyl-3-(4-methylpiperazin-1-yl)-2H-isoquinolin-1-one] | 38 nM | 120 nM | IC50 (Recombinant human PARP; [2]): 42 nM
3 | Cc1cccc2c(=O)[nH]c(N3CCC(N(C)C)CC3)cc12 [Example 12, 5-methyl-3-(4-dimethylaminopiperidin-1-yl)-2H-isoquinolin-1-one] | 37 nM | 110 nM | IC50 (Recombinant human PARP; [2]): 34 nM
4 | CN1CCC(c2cc3ccccc3c(=O)[nH]2)CC1 [Example 82, 3-(1-methylpiperidin-4-yl)-2H-isoquinolin-1-one ⅕ water adduct] | 34 nM | 190 nM | residual ratio (%) under shading 1 day later [1]: ≈100%; residual ratio (%) under shading 8 days later [1]: ≈100%; residual ratio (%) without shading 1 day later [1]: ≈100%; residual ratio (%) without shading 8 days later [1]: ≈100%
5 | Cc1cccc2c(=O)[nH]c(CCCN(C)C)cc12 [Example 90, 3-(3-(dimethylamino)propyl)-5-methyl-2H-isoquinolin-1-one] | 26 nM | 140 nM | –
6 | CN1CCC(c2cc3c(O)cccc3c(=O)[nH]2)CC1 [Example 108, 5-hydroxy-3-(1-methylpiperidin-4-yl)-2H-isoquinolin-1-one] | 12 nM | 124 nM | residual ratio (%) under shading 1 day later [1]: ≈100%; residual ratio (%) under shading 8 days later [1]: ≈100%; residual ratio (%) without shading 1 day later [1]: ≈100%; residual ratio (%) without shading 8 days later [1]: ≈100%
7 | Cc1cccc2c(=O)[nH]c(C3CCN(C)CC3)nc12 [Example 121, 2-(1-methylpiperidin-4-yl)-8-methyl-3H-quinazolin-4-one] | 37 nM | 240 nM | residual ratio (%) under shading 1 day later [1]: ≈100%; residual ratio (%) under shading 8 days later [1]: ≈100%
8 | CN1CCN(c2cc3ccccc3c(=O)[nH]2)C[C@H]1CO [Example 156, (S)-3-(3-hydroxymethyl-4-methylpiperazin-1-yl)-2H-isoquinolin-1-one] | 35 nM | 230 nM | Ki (adrenalin α1 receptor): > 100000 nM
9 | Cc1cccc2c(=O)[nH]c(C3CCN(C)CC3)cc12 [Example 178, 5-methyl-3-(1-methylpiperidin-4-yl)-2H-isoquinolin-1-one] | 23 nM | 90 nM | –
10 | CN1CCC(c2cc3c(N)cccc3c(=O)[nH]2)CC1 [Example 181, 5-amino-3-(1-methylpiperidin-4-yl)-2H-isoquinolin-1-one] | 22 nM | 220 nM | –
11 | CN(C)CCCc1cc2c(O)cccc2c(=O)[nH]1 [Example 186, 5-hydroxy-3-(3-dimethylaminopropyl)-2H-isoquinolin-1-one hydrochloride] | 14 nM | 130 nM | –
12 | O=c1[nH]c(CCN2CCCCC2)cc2c(O)cccc12 [Example 189, 5-hydroxy-3-(2-(piperidin-1-yl)ethyl)-2H-isoquinolin-1-one] | 17 nM | 85 nM | –
13 | Cc1cccc2c(=O)[nH]c(N3CCN(C)[C@H](CO)C3)cc12 [Example 212, (S)-3-(3-hydroxymethyl-4-methylpiperazin-1-yl)-5-methyl-2H-isoquinolin-1-one] | 23 nM | 70 nM | Ki (adrenalin α1 receptor): > 100000 nM
14 | O=c1[nH]c(CCCN2CCCC2)cc2c(O)cccc12 [Example 217, 5-hydroxy-3-(3-(pyrrolidin-1-yl)propyl)-2H-isoquinolin-1-one] | 28 nM | – | melting point: 222 to 225 °C
15 | CN1CCN(c2cc3ccccc3c(=O)[nH]2)CC1 [Example Y-3011, reference compound] | 50 nM | – | residual ratio (%) under shading 1 day later [1]: 76%; residual ratio (%) under shading 8 days later [1]: 32%; PARP inhibitory activity (in words) (Recombinant human PARP; comparison drawn from Table 1): most superior PARP inhibitory activity; Ki (adrenalin α1 receptor): 4000 nM

Reference: patent publication US20040176361A1, “Fused heterocyclic compound and medicinal use thereof” (priority 2001, published 2004)
